Key:
RAW 264.7 cells = assay: MTS cell cytotoxicity assay; format: cell-based, mouse; conditions: 10 mg/mL, positive control, relative to DMEM-treated cells
Experimental: Particles were tested for their cytotoxic properties using MTS assay (Promega), which determines cell viability in culture. RAW 264.7 cells (mouse leukemic monocyte macrophage cell line) were grown in DMEM medium, supplemented with 10% fetal bovine serum and 1% antibiotic in a cell culture flask. The cell culture media was then removed and cells were treated with 2 mL trypsin-EDTA. Thus, cells were detached from the cell culture flask and suspended in 1 mL complete DMEM media. Cell count of the resulting suspension was determined by trypan blue dye exclusion method using Bio-Rad counter (TC10™ Automated cell counter, Bio-Rad, CA). Cell suspension equivalent to 10,000 cells was plated in a 96 well cell culture plate and complete DMEM media was added to attain a volume of 100 μL per well. Plate was incubated for 24 h and various concentrations (2, 1, 0.5, 0.25, 0.125, 0.0625 mg/mL) of 4T07 antigen loaded particles were added to wells (n=3 for each concentration) and again incubated for 24 h. Cells treated with DMEM media alone were used as a negative control and cells treated with benzalkonium chloride (10 mg/ml) were chosen as a positive control (n=3 each). […] The plate was incubated for 4 h at 37° C. in a humidified, 5% CO2 chamber and absorbance was recorded at 490 nm using a UV plate reader (BioTek instruments Inc., VT).

dendritic cells (DC 2.4) = assay: Nitric oxide release from dendritic cells exposed to RSV F-VLP vaccine; format: cell-based
Experimental: For in vitro analysis of immunogenicity of the F-VLP, dendritic cells (DC 2.4) were cultured and exposed to varying concentrations of the vaccine. The optimal concentration was then used to screen four different adjuvants (Poly I:C, Alum, MPL and MF59). Evaluation of innate and adaptive immunity was done using the nitric oxide assay and expression of cell surface markers using the C6 flow cytometer.
a. Following exposure to an antigen, dendritic cells (DC 2.4) are known to release nitric oxide and express cell surface markers that signal CD4+ Helper T cells and/or CD8+ Cytotoxic T cells.

[1] = tested on: CD4+ and CD8+ T cell populations; assay: CD4/CD8 population analysis of splenocytes incubated with stimulated APCs; format: cell-based, Swiss Webster mice; conditions: 5 days
Experimental: The spleens were collected from the same mice that were harvested APCs from the intraperitoneal cavity, and the single-cell suspensions of the spleens were introduced into the stimulated APCs with a ratio of 1:1 (splenocytes:APCs). After a five-day incubation at 37° C. and 5% CO2, the splenocytes were harvested from the supernatant, washed with Hank's balanced salt solution and labeled with anti-mouse CD4 PE and anti-mouse CD8a FITC. The cells were analyzed for CD4^+ and CD8^+ T cell populations using BD Accuri® C6 flow cytometer.

APCs = assay: Nitric oxide assay (Greiss) on harvested APCs; format: cell-based, Swiss Webster mice; conditions: 2.5 μg adjuvant in MP + 2.5 μg M2p in MP, 20 hours
Experimental: 5 Sodium thioglycolate was injected into the intraperitoneal cavity of Swiss Webster (6-8 week old) with the amount of 40 mg per mouse to recruit the APCs (13)(14). After four days, these mice were euthanized and 5.0 mL of PBS was injected intraperitoneally into each mouse to harvest cells from the cavity. Collected cells were washed with PBS twice before adding the complete RPMI media. After these APCs adhered to the bottom of a T75 flask, the supernatant was removed and complete RPMI media was added in the presence of ConA ([…]).
The harvested APCs (5×10^4 cells/well) were seeded in Dulbecco's complete media in a 96 well plate. The soluble and particulate vaccines (with and without adjuvants) were introduced to the APCs with the same amount of antigen (2.5 μg) and adjuvant (2.5 μg). The induced APCs were incubated for 20 hours at 37° C. % CO2. Supernatants were collected and the amount of nitric oxide released in each group was analyzed using the Greiss chemical method (equal volumes of 1% sulphanilamide and 0.1% N-(1-naphthylethylenediamine)). The plate was read at a wavelength of 540 nm (15).

## CCCCCCCCCCCCC[N+](C)(C)Cc1ccccc1 [benzalkonium chloride]
RAW 264.7 cells
  cell viability: 21%

## Poly I:C
Dendritic cells (DC 2.4)
  amount of nitric oxide released, vaccine with adjuvant compared to vaccine alone: much higher compared to vaccine alone

## monophospholyl lipid A [MPL]
[1]
  CD8+ T cell population compared to M2p MP treated group: elevated

B1: Flagellin: flagellin from Salmonella typhimurium, adjuvant in microparticles (protein, UniProt P06179 2-495, looked up)
Flagellin: AQVINTNSLSLLTQNNLNKSQSALGTAIERLSSGLRINSAKDDAAGQAIANRFTANIKGLTQASRNANDGISIAQTTEGALNEINNNLQRVRELAVQSANSTNSQSDLDSIQAEITQRLNEIDRVSGQTQFNGVKVLAQDNTLTIQVGANDGETIDIDLKQINSQTLGLDTLNVQQKYKVSDTAATVTGYADTTIALDNSTFKASATGLGGTDQKIDGDLKFDDTTGKYYAKVTVTGGTGKDGYYEVSVDKTNGEVTLAGGATSPLTGGLPATATEDVKNVQVANADLTEAKAALTAAGVTGTASVVKMSYTDNNGKTIDGGLAVKVGDDYYSATQNKDGSISINTTKYTADDGTSKTALNKLGGADGKTEVVSIGGKTYAASKAEGHNFKAQPDLAEAAATTTENPLQKIDAALAQVDTLRSDLGAVQNRFNSAITNLGNTVNNLTSARSRIEDSDYATEVSNMSRAQILQQAGTSVLAQANQVPQNVLSLLR
APCs
  nitric oxide level compared to M2p MP group: significantly higher
[1]
  CD4+ T cell population compared to M2p MP treated group: elevated CD4+ T cell population

Reference: patent publication US11628208B2, “System and method for microneedle delivery of microencapsulated vaccine and bioactive proteins” (priority 2015, dated 2023)
